These results are taken from US12630547B2, “RAS protein degraders, pharmaceutical compositions thereof, and their therapeutic applications” (BioTheryX, Inc., priority 2019, dated 2026).

Assay type in all cases: cell-based
The test system of one experiment is MOLM-13 cells. The experiment in a line: Cell viability assay (CELLTITER-GLO), MOLM-13 cells. The conditions noted are these: Homo sapiens, MOLM-13, 72 h; Table 2; compound at 10 μM, 3 days; read-out: Effect on MOLM-13 cell viability (% DMSO). Summed up:
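Viability, as % of DMSO control, was read by CellTiter-Glo luminescence after a 3-day compound exposure (single dose of 10 μM or 1 μM) at 37 °C. Cells plated at 4,000/well in RPMI 1640 with 10% FBS. Results reported as categories A <10%, B 10–<25%, C 25–<50%, D ≥50%.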

Another experiment concerns H358 cells. The experiment in a line: Cell viability assay (CELLTITER-GLO), H358 cells. The conditions noted are these: Table 4; 3 days. A digest of the protocol: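 Luminescent ATP read-out (CellTiter-Glo) after 3-day incubation at 37 °C of H358 cells plated at 4,000/well in RPMI 1640 with 10% FBS. Values are either IC50 bins (A ≤1 μM through D >10 μM) or % of DMSO viability at 10 μM or 1 μM, bins A <10% through D ≥50%.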

Another experiment has as its system H23 cells. The experiment is described as follows: Cell viability assay (CELLTITER-GLO), H23 cells. The conditions noted are these: Table 4; 3 days. A digest of the protocol:
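Luminescent CellTiter-Glo readout after 3-day compound treatment (37° C, 5% CO2) of H23 cells plated at 4,000 cells/well in RPMI 1640 plus 10% FBS, DMSO as control. IC50 values given as categorical ranges.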
For orientation: Cellular ATP, detected with luciferase, serves as a proxy for viable cell number.

As to `C=CC(=O)N1C[C@@H]2C(=O)N(C)c3cnc4c(F)c(-c5c(F)cccc5OCCCCCCCN5CCC(c6cc(F)cc7c6CN(C6CCC(=O)NC6=O)C7=O)CC5)c(Cl)cc4c3N2C[C@H]1C` (stereo partly drawn) [Compound 64, 3-(4-(1-(7-(2-((2R,4aR)-3-Acryloyl-11-chloro-9-fluoro-2,6-dimethyl-5-oxo-2,3,4,4a,5,6-hexahydro-1H-pyrazino[1′,2′:4,5]pyrazino[2,3-c]quinolin-10-yl)-3-fluorophenoxy)heptyl)piperidin-4-yl)-6-fluoro-1-oxoisoindolin-2-yl)piperidine-2,6-dione], in the experiment on MOLM-13 cells, the viability at 10 µM was under 10%. Also, the “Inhibition of H358 cells, IC50 (class)” value in the experiment with H358 cells was “B′”. In the experiment on H23 cells, the “Inhibition of H23 cells, IC50 (class)” value is listed as “A′”.
On to `CCC(=O)N1C[C@@H]2C(=O)N(C)c3cnc4c(F)c(-c5c(F)cccc5OCCCCCCCN5CCC(c6cc(F)cc7c6CN(C6CCC(=O)NC6=O)C7=O)CC5)c(Cl)cc4c3N2C[C@H]1C` (stereo partly drawn) [Compound 65, 3-(4-(1-(7-(2-((2R,4aR)-11-Chloro-9-fluoro-2,6-dimethyl-5-oxo-3-propionyl-2,3,4,4a,5,6-hexahydro-1H-pyrazino[11′,2′:4,5]pyrazino[2,3-c]quinolin-10-yl)-3-fluorophenoxy)heptyl)piperidin-4-yl)-6-fluoro-1-oxoisoindolin-2-yl)piperidine-2,6-dione], for which, in the experiment with MOLM-13 cells, the viability at 10 µM was under 10%. The “Inhibition of H358 cells, IC50 (class)” value in the experiment on H358 cells is “B′”. Besides, the “Inhibition of H23 cells, IC50 (class)” value in the experiment on H23 cells is listed as “B′”.
Consider `C=CC(=O)N1C[C@@H]2C(=O)N(CCCCCCCN3CCC(c4cc(F)cc5c4CN(C4CCC(=O)NC4=O)C5=O)CC3)c3cnc4c(F)c(-c5c(O)cccc5F)c(Cl)cc4c3N2C[C@H]1C` (stereo partly drawn) [Compound 66, 3-(4-(1-(7-((2R,4aR)-3-Acryloyl-11-chloro-9-fluoro-10-(2-fluoro-6-hydroxyphenyl)-2-methyl-5-oxo-1,2,3,4,4a,5-hexahydro-6H-pyrazino[1′,2′:4,5]pyrazino[2,3-c]quinolin-6-yl)heptyl)piperidin-4-yl)-6-fluoro-1-oxoisoindolin-2-yl)piperidine-2,6-dione], for which, in the experiment with MOLM-13 cells, the viability at 10 µM was under 10%. Besides, the “Inhibition of H358 cells, IC50 (class)” value with H358 cells is recorded as “A′”. In addition, the “Inhibition of H23 cells, IC50 (class)” value in the experiment with H23 cells was “B′”.
The like results for `CCC(=O)N1C[C@@H]2C(=O)N(CCCCCCCN3CCC(c4cc(F)cc5c4CN(C4CCC(=O)NC4=O)C5=O)CC3)c3cnc4c(F)c(-c5c(O)cccc5F)c(Cl)cc4c3N2C[C@H]1C` (stereo partly drawn) [Compound 67, 3-(4-(1-(7-((2R,4aR)-11-Chloro-9-fluoro-10-(2-fluoro-6-hydroxyphenyl)-2-methyl-5-oxo-3-propionyl-1,2,3,4,4a,5-hexahydro-6H-pyrazino[11′,2′:4,5]pyrazino[2,3-c]quinolin-6-yl)heptyl)piperidin-4-yl)-6-fluoro-1-oxoisoindolin-2-yl)piperidine-2,6-dione] were, in that order, under 10%, “B′” and “B′”.
The matching figures for `C=CC(=O)N1CCN(c2ncnc3c(F)c(-c4c(F)cccc4OCCCCCCCN4CCC(c5scc6c5CN(C5CCC(=O)NC5=O)C6=O)CC4)c(Cl)cc23)CC1` (stereo not drawn) [Compound 70, 3-(1-(1-(7-(2-(4-(4-Acryloylpiperazin-1-yl)-6-chloro-8-fluoroquinazolin-7-yl)-3-fluorophenoxy)heptyl)piperidin-4-yl)-4-oxo-4H-thieno[3,4-c]pyrrol-5(6H)-yl)piperidine-2,6-dione]: under 10%, “A′” and “B′”.
With `CCC(=O)N1CCN(c2ncnc3c(F)c(-c4c(F)cccc4OCCCCCCCN4CCC(c5scc6c5CN(C5CCC(=O)NC5=O)C6=O)CC4)c(Cl)cc23)CC1` (stereo not drawn) [Compound 71, 3-(1-(1-(7-(2-(6-chloro-8-fluoro-4-(4-propionylpiperazin-1-yl)quinazolin-7-yl)-3-fluorophenoxy)heptyl)piperidin-4-yl)-4-oxo-4H-thieno[3,4-c]pyrrol-5(6H)-yl)piperidine-2,6-dione], the viability at 10 µM in the experiment with MOLM-13 cells was under 10%. Also, the “Inhibition of H358 cells, IC50 (class)” value with H358 cells was “B′”. In the experiment with H23 cells, the “Inhibition of H23 cells, IC50 (class)” value is reported as “B′”.

As usually defined, the viability is a read-out of living cells in per cent, often relative to untreated cells.
